Test results from US4661630A, “Carboxylic acid amides and their derivatives” (Eisai Co., Ltd., priority 1982, dated 1987).

Experiments:
[1] = tested on: maximal electroshock seizures in mice; assay: Anti-electroshock convulsion activity (maximal electroshock seizures, method of Goodman et al.); format: in vivo; settings: 2 hours after oral administration, n = 8, 25 mA, 0.25 sec.
Method: The effects of the representative compounds of the present invention on maximal electroshock seizures in mice were determined by the method of Goodman et al. [Goodman L. S., Singh Grewal M., Brown W. C. and Swinyard E. A., J. Pharmacol, Exp. Ther., 108, 168-176 (1953)]. At 2 hours after oral administration of test compounds, current (25 mA, 0.25 sec.) was delivered to animals with an electroshock device (made by Unique Medical).

[2] = tested on: metrazol-induced convulsive death; assay: Anti-metrazol activity (metrazol-induced convulsive death); format: in vivo; settings: oral doses of 20 to 80 mg/kg, male STD-ddY mice
Text: (a) Anti-metrazol activity of the compounds of the present invention was examined in male STD-ddY mice.

[3] = Acute toxicity (oral LD50); settings: mouse, in vivo, mice
Text: (c) Acute toxicity of the compounds of the present invention was relatively low.

[4] = tested on: mortality induced by potassium cyanide; assay: Anti-hypoxic activity (mortality induced by potassium cyanide); format: in vivo; settings: 10 to 20 mg/kg, p.o., male STD-ddY mice

Row | Structure (SMILES) | Inhibition (%) of tonic extension ([1]; 10 mg/kg p.o.) | Inhibition (%) of tonic extension ([1]; 20 mg/kg p.o.) | Inhibition (%) of tonic extension ([1]; 40 mg/kg p.o.) | Inhibition (%) of tonic extension ([1]; 80 mg/kg p.o.) | Inhibition (%) of tonic extension ([1]; 320 mg/kg p.o.) | antagonism against metrazol-induced convulsive death [2] | LD50 [3] | anti-hypoxic activity (antagonism against mortality induced by potassium cyanide) [4]
1 | O=C(Nc1cc(C(F)(F)F)cc(C(F)(F)F)c1)[C@H]1CCCC[C@H]1C(=O)O (relative stereo) [Compound A, cis-2-[(3,5-bistrifluoromethyl)-phenyl-aminocarbonyl]-cyclohexane carboxylic acid] | 25% | 50% | 100% | 100% | 100% | dose-dependent antagonism | 1000 to 2000 mg/kg | potent anti-hypoxic activity
2 | O=C(O)[C@@H]1CCCC[C@H]1C(=O)Nc1cc(C(F)(F)F)cc(C(F)(F)F)c1 (relative stereo) [Compound B, trans-2-[(3,5-bistrifluoromethyl)-phenyl-aminocarbonyl]-cyclohexane carboxylic acid] |  |  |  | 0% | 100% |  |  | 
3 | O=C(Nc1cc(C(F)(F)F)cc(C(F)(F)F)c1)[C@H]1CC=CC[C@H]1C(=O)O (relative stereo) [Compound C, cis-6-[(3,5-bistrifluoromethyl-phenyl)-aminocarbonyl]-3-cyclohexene carboxylic acid] | 12.5% | 100% | 100% | 100% | 100% | dose-dependent antagonism | 1000 to 2000 mg/kg | potent anti-hypoxic activity
4 | O=C(Nc1cc(C(F)(F)F)cc(C(F)(F)F)c1)[C@@H]1[C@@H]2CC[C@@H](C2)[C@@H]1C(=O)O (relative stereo) [Compound E, cis-endo-3-[(3,5-bistrifluoromethyl-phenyl)-aminocarbonyl]-bicyclo-(2,2,1)-heptane-2-carboxylic acid] |  |  |  | 0% | 100% |  |  | 
5 | CC1CC[C@H](C(=O)O)[C@H](C(=O)Nc2cc(C(F)(F)F)cc(C(F)(F)F)c2)C1 (relative stereo) [Compound F, cis-2-[(3,5-bistrifluoromethyl-phenyl)-aminocarbonyl]-4(5)-methyl-cyclohexane carboxylic acid] |  |  | 50% | 100% | 100% |  |  | 
6 | O=C(O)C1=C(C(=O)Nc2cc(C(F)(F)F)cc(C(F)(F)F)c2)CCCC1 [Compound D, 2-[(3,5-bistrifluoromethyl-phenyl)-aminocarbonyl]-1-cyclohexenecarboxylic acid] |  |  |  | 0% | 100% |  |  | 
7 | O=C1C2CCCCC2C(=O)N1c1cc(C(F)(F)F)cc(C(F)(F)F)c1 (stereo not drawn) [Compound G, N-(3,5-bistrifluoromethylphenyl)-cyclohexane-1,2-dicarboximide] |  |  | 25% | 100% | 100% |  |  | 
8 | O=C1C2CC=CCC2C(=O)N1c1cc(C(F)(F)F)cc(C(F)(F)F)c1 (stereo not drawn) [Compound H, N-(3,5-bistrifluoromethylphenyl)-4-cyclohexene-1,2-dicarboximide] |  |  |  | 50% | 87.5% |  |  | 
